Data from ChEMBL document CHEMBL1275330, “Rational design, synthesis, and evaluation of new selective inhibitors of microbial class II (zinc dependent) fructose bis-phosphate aldolases” (J Med Chem, 2010).
“And” between values parts separate entries of the source, which are not always exact repeats. Equal entries are not always repeated.

Columns and labels:
[1] = biological target: T1, Fructose-bisphosphate aldolase (Mycobacterium tuberculosis, UniProt P9WQA3)
T1 sequence (P9WQA3 whole entry): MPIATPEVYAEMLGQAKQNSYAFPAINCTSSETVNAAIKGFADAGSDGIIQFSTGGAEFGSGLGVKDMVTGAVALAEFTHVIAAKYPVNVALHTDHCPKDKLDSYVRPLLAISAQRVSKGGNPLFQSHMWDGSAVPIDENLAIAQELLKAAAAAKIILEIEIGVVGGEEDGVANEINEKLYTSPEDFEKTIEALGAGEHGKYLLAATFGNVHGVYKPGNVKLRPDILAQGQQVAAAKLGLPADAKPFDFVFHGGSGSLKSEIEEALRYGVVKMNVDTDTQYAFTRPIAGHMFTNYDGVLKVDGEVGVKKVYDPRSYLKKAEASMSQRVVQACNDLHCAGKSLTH

[2] = biological target: T2, Fructose-bisphosphate aldolase class II (Yersinia pestis, UniProt A0A380PJR2)
T2 sequence (A0A380PJR2 whole entry): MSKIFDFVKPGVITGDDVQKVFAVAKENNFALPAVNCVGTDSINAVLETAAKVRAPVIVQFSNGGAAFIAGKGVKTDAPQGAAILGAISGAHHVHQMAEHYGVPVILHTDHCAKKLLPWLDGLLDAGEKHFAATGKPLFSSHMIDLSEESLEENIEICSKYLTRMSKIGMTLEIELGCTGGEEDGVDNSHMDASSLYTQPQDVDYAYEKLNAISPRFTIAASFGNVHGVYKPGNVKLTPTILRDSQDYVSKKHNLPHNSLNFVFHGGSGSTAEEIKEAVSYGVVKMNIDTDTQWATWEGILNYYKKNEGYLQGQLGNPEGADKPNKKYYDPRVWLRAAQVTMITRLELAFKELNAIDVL

[3] = biological target: T3, Fructose-bisphosphate aldolase (Candida albicans (strain SC5314 / ATCC MYA-2876) (Yeast), UniProt Q9URB4); experiment: Inhibition of Candida albicans zinc dependent class 2 Fba
T3 sequence (Q9URB4 whole entry): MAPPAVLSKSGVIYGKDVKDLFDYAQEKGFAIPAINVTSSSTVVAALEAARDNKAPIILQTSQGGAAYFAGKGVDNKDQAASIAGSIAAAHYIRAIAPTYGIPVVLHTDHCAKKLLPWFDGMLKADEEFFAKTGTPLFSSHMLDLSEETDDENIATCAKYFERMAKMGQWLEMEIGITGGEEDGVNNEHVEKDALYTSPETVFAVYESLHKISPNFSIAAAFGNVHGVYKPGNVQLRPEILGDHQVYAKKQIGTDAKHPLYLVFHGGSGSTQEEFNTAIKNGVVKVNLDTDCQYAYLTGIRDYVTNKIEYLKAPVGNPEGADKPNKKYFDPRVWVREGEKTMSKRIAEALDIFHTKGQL

[4] = biological target: T4, Fructose-bisphosphate aldolase (Helicobacter pylori (strain ATCC 700392 / 26695) (Campylobacterpylori), UniProt P56109)
T4 sequence (P56109 whole entry): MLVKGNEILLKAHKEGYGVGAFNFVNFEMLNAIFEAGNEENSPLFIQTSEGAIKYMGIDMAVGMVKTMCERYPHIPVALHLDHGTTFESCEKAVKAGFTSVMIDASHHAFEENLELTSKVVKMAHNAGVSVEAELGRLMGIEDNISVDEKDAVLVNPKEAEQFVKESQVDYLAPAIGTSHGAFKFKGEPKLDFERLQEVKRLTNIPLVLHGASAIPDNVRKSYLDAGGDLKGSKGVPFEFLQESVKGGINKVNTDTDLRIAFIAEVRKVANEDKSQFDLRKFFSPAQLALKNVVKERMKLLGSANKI

[5] = biological target: T5, Fructose-bisphosphate aldolase A (Oryctolagus cuniculus, UniProt P00883)
T5 sequence (P00883 whole entry): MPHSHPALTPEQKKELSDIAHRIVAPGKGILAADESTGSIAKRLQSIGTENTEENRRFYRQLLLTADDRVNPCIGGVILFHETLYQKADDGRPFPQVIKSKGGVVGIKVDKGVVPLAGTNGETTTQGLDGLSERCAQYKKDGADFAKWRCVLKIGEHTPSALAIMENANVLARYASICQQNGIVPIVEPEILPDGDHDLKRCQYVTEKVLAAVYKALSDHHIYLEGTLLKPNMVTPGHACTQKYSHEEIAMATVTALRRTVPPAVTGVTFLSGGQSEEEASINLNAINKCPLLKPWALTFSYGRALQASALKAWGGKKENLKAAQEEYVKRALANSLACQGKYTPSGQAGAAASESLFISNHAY

## O=C(COP(=O)(O)O)[C@@H](O)[C@H](O)[C@H](O)COP(=O)(O)O
[1]
  Ki: 21 µM
[2]
  Ki: 55 µM

## O=C(COP(=O)(O)O)N(O)CCCCO
[3]
  Ki: 0.3 µM and 0.297 µM

## O=C(COP(=O)(O)O)N(O)CCCCOP(=O)(O)O
[1]
  IC50: 0.0032 µM
[2]
  IC50: 0.036 µM
[4]
  IC50: 0.131 µM
[3]
  IC50: 0.0048 µM
  Ki: 0.003 µM and 0.00325 µM
[5]
  IC50: 112 µM

## O=C(COP(=O)(O)O)N(O)CCCO
[5]
  Ki: 2500 µM

## CCCCCC(=O)OCCCCN(O)C(=O)COP(=O)(O)O
[3]
  Ki: 0.28 µM and 0.276 µM

## CCCCCCCCCCCC(=O)OCCCCN(O)C(=O)COP(=O)(O)O
[3]
  Ki: 0.8 µM and 0.815 µM
[5]
  Ki: 67 µM
